From ChEMBL document CHEMBL1201862, “PubChem BioAssay data set” (2004)
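Exposure lasted 48 hours, with cells grown in 96-well plates and compounds tested at five concentrations. GI50 is the concentration that inhibits growth by half.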 Activity calls are given as the source filed them. Rule as the data show it: active = GI50 up to about 1.1 µM and inactive = higher.

Columns and labels:
Assay in all cases: DTP human tumour cell line panel, 48 h
A549 = tested on: A549
CCRF-CEM = tested on: CCRF-CEM
COLO 205 = tested on: COLO 205
HT-29 = tested on: HT-29
IGROV-1 = tested on: IGROV-1
K562 = tested on: K562
MOLT-4 = tested on: MOLT-4
OVCAR-4 = tested on: OVCAR-4
OVCAR-5 = tested on: OVCAR-5
OVCAR-8 = tested on: OVCAR-8
RPMI-8226 = tested on: RPMI-8226
SF-295 = tested on: SF-295
SK-MEL-28 = tested on: SK-MEL-28
SK-MEL-2 = tested on: SK-MEL-2
SK-OV-3 = tested on: SK-OV-3
SN12C = tested on: SN12C
SNB-19 = tested on: SNB-19
SNB-75 = tested on: SNB-75
SW-620 = tested on: SW-620
UO-31 = tested on: UO-31

| Compound | GI50 (A549) | GI50 (CCRF-CEM) | GI50 (COLO 205) | GI50 (HT-29) | GI50 (IGROV-1) | GI50 (K562) | GI50 (MOLT-4) | GI50 (OVCAR-4) | GI50 (OVCAR-5) | GI50 (OVCAR-8) | GI50 (RPMI-8226) | GI50 (SF-295) | GI50 (SK-MEL-28) | GI50 (SK-MEL-2) | GI50 (SK-OV-3) | GI50 (SN12C) | GI50 (SNB-19) | GI50 (SNB-75) | GI50 (SW-620) | GI50 (UO-31) |
| --- | --- | --- | --- | --- | --- | --- | --- | --- | --- | --- | --- | --- | --- | --- | --- | --- | --- | --- | --- | --- |
| Cc1c2cnccc2c(C)c2c1c1ccccc1n2CCCCCCNCc1ccccc1 | 1.91 µM (inactive) | 0.489 µM (active) | 1.43 µM (inactive) | 1.36 µM (inactive) | 1.8 µM (inactive) | 0.541 µM (active) | 0.167 µM (active) | 0.787 µM (active) | 1.75 µM (inactive) | 0.883 µM (active) | 0.766 µM (active) | 1.82 µM (inactive) | 2.38 µM (inactive) | 2.22 µM (inactive) | 3.8 µM (inactive) | 1.59 µM (inactive) | 1.88 µM (inactive) | 2.05 µM (inactive) | 0.608 µM (active) | 1.99 µM (inactive) |
| O=C1C(Cl)N(c2ccccc2)C1c1c[nH]c2ccccc12 (stereo not given) | > 100 µM (inactive) | > 100 µM (inactive) | > 100 µM (inactive) | > 100 µM (inactive) | > 100 µM (inactive) | > 100 µM (inactive) | > 100 µM (inactive) | > 100 µM (inactive) | 46 µM (inactive) | > 100 µM (inactive) | > 100 µM (inactive) | > 100 µM (inactive) | > 100 µM (inactive) | > 100 µM (inactive) | > 100 µM (inactive) | > 100 µM (inactive) | 48.9 µM (inactive) | > 100 µM (inactive) | > 100 µM (inactive) | 65.6 µM (inactive) |
| c1ccc2cc3n[se]nc3cc2c1 | 52.7 µM (inactive) | 32.5 µM (inactive) | > 100 µM (inactive) | > 100 µM (inactive) | 48.8 µM (inactive) | > 100 µM (inactive) | 75.5 µM (inactive) | > 100 µM (inactive) | > 100 µM (inactive) | > 100 µM (inactive) | > 100 µM (inactive) | 39.4 µM (inactive) | > 100 µM (inactive) | > 100 µM (inactive) | > 100 µM (inactive) | 91.8 µM (inactive) | 81.1 µM (inactive) | 56.9 µM (inactive) | > 100 µM (inactive) | 55.8 µM (inactive) |
| COc1ccc2c(c1)CC1Cc3ccccc3CCN1C2 (stereo not given) | 28.8 µM (inactive) | 98.6 µM (inactive) | 35.5 µM (inactive) | 32.4 µM (inactive) | 38 µM (inactive) | 56.2 µM (inactive) | 80.5 µM (inactive) | > 100 µM (inactive) | 22.6 µM (inactive) | > 100 µM (inactive) | 39.5 µM (inactive) | 29.2 µM (inactive) | > 100 µM (inactive) | 44 µM (inactive) | 20.5 µM (inactive) | > 100 µM (inactive) | 55 µM (inactive) | > 100 µM (inactive) | 76 µM (inactive) | 37.2 µM (inactive) |
| COc1nc2ccc(CNc3ccc(C(=O)NC(CCC(=O)O)C(=O)O)cc3)cc2nc1OC (stereo not given) | > 100 µM (inactive) | 23.2 µM (inactive) | > 100 µM (inactive) | > 100 µM (inactive) | > 100 µM (inactive) | 25.3 µM (inactive) | 18.8 µM (inactive) | > 100 µM (inactive) | > 100 µM (inactive) | > 100 µM (inactive) | > 100 µM (inactive) | > 100 µM (inactive) | > 100 µM (inactive) | > 100 µM (inactive) | > 100 µM (inactive) | > 100 µM (inactive) | > 100 µM (inactive) | > 100 µM (inactive) | 39.6 µM (inactive) | > 100 µM (inactive) |
| C=C(C(=O)C(=O)Oc1ccc(Cl)cc1)C(=O)c1ccc(C)cc1 | 78 µM (inactive) | 22.8 µM (inactive) | > 100 µM (inactive) | 31.1 µM (inactive) | > 100 µM (inactive) | 81.5 µM (inactive) | 58.3 µM (inactive) | > 100 µM (inactive) | > 100 µM (inactive) | 55.3 µM (inactive) | 31.9 µM (inactive) | 76 µM (inactive) | 71.1 µM (inactive) | > 100 µM (inactive) | > 100 µM (inactive) | 49.9 µM (inactive) | 53.2 µM (inactive) | 39.2 µM (inactive) | 19.3 µM (inactive) | 40.2 µM (inactive) |
| C/C(=C1/N=C(c2cc([N+](=O)[O-])ccc2Cl)N(c2ccc(Br)cc2)C1=O)c1cc2ccccc2oc1=O | 25.9 µM (inactive) | 16.5 µM (inactive) | 3.38 µM (inactive) | 42.1 µM (inactive) | 26.1 µM (inactive) | 34.4 µM (inactive) | 20.2 µM (inactive) | 18.3 µM (inactive) | > 100 µM (inactive) | 81.8 µM (inactive) | 26.6 µM (inactive) | 80.5 µM (inactive) | 60.8 µM (inactive) | 22.6 µM (inactive) | 90.4 µM (inactive) | 20.3 µM (inactive) | 55.8 µM (inactive) | 33.8 µM (inactive) | 34.2 µM (inactive) | 23.7 µM (inactive) |
| O=C1OC2(OC2c2ccc(Cl)cc2)c2ccccc21 (stereo not given) | > 100 µM (inactive) | 51.5 µM (inactive) | > 100 µM (inactive) | > 100 µM (inactive) | > 100 µM (inactive) | 53.1 µM (inactive) | > 100 µM (inactive) | 42.6 µM (inactive) | > 100 µM (inactive) | > 100 µM (inactive) | 89.1 µM (inactive) | 85.7 µM (inactive) | > 100 µM (inactive) | > 100 µM (inactive) | > 100 µM (inactive) | > 100 µM (inactive) | 73.8 µM (inactive) | 48.1 µM (inactive) | > 100 µM (inactive) | > 100 µM (inactive) |
| C=CCP(=O)(CC=C)C(Cl)Cl | > 100 µM (inactive) | > 100 µM (inactive) | > 100 µM (inactive) | > 100 µM (inactive) | > 100 µM (inactive) | > 100 µM (inactive) | > 100 µM (inactive) | > 100 µM (inactive) | > 100 µM (inactive) | > 100 µM (inactive) | > 100 µM (inactive) | > 100 µM (inactive) | > 100 µM (inactive) | > 100 µM (inactive) | > 100 µM (inactive) | > 100 µM (inactive) | > 100 µM (inactive) | > 100 µM (inactive) | > 100 µM (inactive) | > 100 µM (inactive) |
| O=[N+]([O-])C(=C/c1ccccc1)/C(=C\c1ccccc1)[N+](=O)[O-] | 28.6 µM (inactive) | 1.71 µM (inactive) | 15.2 µM (inactive) | 17.6 µM (inactive) | 16.8 µM (inactive) | 7.11 µM (inactive) | 3.2 µM (inactive) | 21.3 µM (inactive) | 22 µM (inactive) | 20 µM (inactive) | 10.3 µM (inactive) | 18.7 µM (inactive) | 15.9 µM (inactive) | 20.1 µM (inactive) | 20 µM (inactive) | 23.4 µM (inactive) | 18.2 µM (inactive) | 18.4 µM (inactive) | 13.5 µM (inactive) | 17.5 µM (inactive) |
| COc1cc2c(cc1OC)-c1cc3ccccc3c(=O)n1CC2 | 11.4 µM (inactive) | 25 µM (inactive) | 37.8 µM (inactive) | 24.8 µM (inactive) | 19.5 µM (inactive) | 26.1 µM (inactive) | 26.1 µM (inactive) | 41.6 µM (inactive) | 31.8 µM (inactive) | 29 µM (inactive) | 13.7 µM (inactive) | 15.3 µM (inactive) | 27.7 µM (inactive) | 11.7 µM (inactive) | 13.3 µM (inactive) | 26.1 µM (inactive) | 43.7 µM (inactive) | 11.9 µM (inactive) | 29.1 µM (inactive) | 19.9 µM (inactive) |
| NC1(C(=O)O)CCCC1 [CYCLOLEUCINE] | > 625 µM (inactive) | > 625 µM (inactive) | > 625 µM (inactive) | > 625 µM (inactive) | > 625 µM (inactive) | > 625 µM (inactive) | > 625 µM (inactive) | > 625 µM (inactive) | > 625 µM (inactive) | > 625 µM (inactive) | > 625 µM (inactive) | > 625 µM (inactive) | > 625 µM (inactive) | > 625 µM (inactive) | > 625 µM (inactive) | > 91 µM (inactive) | > 99.1 µM (inactive) | > 625 µM (inactive) | > 625 µM (inactive) | > 625 µM (inactive) |
